Results reported in patent US20170064988A1, “Delivery Systems for Natural High-Potency Sweetener Compositions, Methods for Their Formulation, and Uses” (The Coca-Cola Company, priority 2007, published 2017).

How the values were obtained:
[1] = Dissolution of spray-dried amorphous rebaudioside A in water; type: physicochemical; conditions: room temperature, in 5 minutes
Protocol: A solution of rebaudioside A (>97% pure by HPLC) was prepared in double distilled water (12.5 gm in 50 mL, 25% concentration) by stirring the mixture at 40° C. for 5 minutes. An amorphous rebaudioside form of A was formed by immediately using the clear solution for spray drying with the Lab-Plant spray drier SD-04 instrument (Lab-Plant Ltd., West Yorkshire, U.K.). The solution was fed through the feed pump into the nozzle atomizer which atomized it into a spray of droplets with the help of a constant flow of nitrogen/air. […] This dry powder (11-12 g, H2O 6.74%) was discharged continuously from the drying chamber and was collected in a bottle. The material was dissolved rapidly in water at room temperature up to a concentration of 35.0% (w/v) in 5 minutes.

[2] = Rate of dissolution of rebaudioside A polymorphic and amorphous forms in water; type: physicochemical

Row | Concentration dissolved rapidly in water [1] | Rate of dissolution in H2O at 25° C. (grade in words) [2] | Rate of dissolution in H2O at 25° C., amount dissolved in 60 minutes ([2]; in 60 minutes) | Rate of dissolution in H2O at 25° C., amount dissolved in 5 minutes [2] | Compound
1 |  | Intermediate |  | (<30% in | C=C1C[C@@]23CC[C@H]4[C@@](C)(CCC[C@@]4(C)C(=O)O[C@@H]4O[C@H](CO)[C@@H](O)[C@H](O)[C@H]4O)[C@@H]2CC[C@]1(O[C@@H]1O[C@H](CO)[C@@H](O)[C@H](O[C@@H]2O[C@H](CO)[C@@H](O)[C@H](O)[C@H]2O)[C@H]1O[C@@H]1O[C@H](CO)[C@@H](O)[C@H](O)[C@H]1O)C3 [Form 2, rebaudioside A]
2 |  | High |  | (>30% in | C=C1C[C@@]23CC[C@H]4[C@@](C)(CCC[C@@]4(C)C(=O)O[C@@H]4O[C@H](CO)[C@@H](O)[C@H](O)[C@H]4O)[C@@H]2CC[C@]1(O[C@@H]1O[C@H](CO)[C@@H](O)[C@H](O[C@@H]2O[C@H](CO)[C@@H](O)[C@H](O)[C@H]2O)[C@H]1O[C@@H]1O[C@H](CO)[C@@H](O)[C@H](O)[C@H]1O)C3 [Form 3, rebaudioside A]
3 |  | High |  | (>35% in | C=C1C[C@@]23CC[C@H]4[C@@](C)(CCC[C@@]4(C)C(=O)O[C@@H]4O[C@H](CO)[C@@H](O)[C@H](O)[C@H]4O)[C@@H]2CC[C@]1(O[C@@H]1O[C@H](CO)[C@@H](O)[C@H](O[C@@H]2O[C@H](CO)[C@@H](O)[C@H](O)[C@H]2O)[C@H]1O[C@@H]1O[C@H](CO)[C@@H](O)[C@H](O)[C@H]1O)C3 [Form 4, rebaudioside A]

Second part, the compound before the results:

Row | Compound | Concentration dissolved rapidly in water [1] | Rate of dissolution in H2O at 25° C. (grade in words) [2] | Rate of dissolution in H2O at 25° C., amount dissolved in 60 minutes ([2]; in 60 minutes) | Rate of dissolution in H2O at 25° C., amount dissolved in 5 minutes [2]
4 | C=C1C[C@@]23CC[C@H]4[C@@](C)(CCC[C@@]4(C)C(=O)O[C@@H]4O[C@H](CO)[C@@H](O)[C@H](O)[C@H]4O)[C@@H]2CC[C@]1(O[C@@H]1O[C@H](CO)[C@@H](O)[C@H](O[C@@H]2O[C@H](CO)[C@@H](O)[C@H](O)[C@H]2O)[C@H]1O[C@@H]1O[C@H](CO)[C@@H](O)[C@H](O)[C@H]1O)C3 [Example F, rebaudioside A] | ≤ 35.0 % (w/v) |  |  | 
5 | C=C1C[C@@]23CC[C@H]4[C@@](C)(CCC[C@@]4(C)C(=O)O[C@@H]4O[C@H](CO)[C@@H](O)[C@H](O)[C@H]4O)[C@@H]2CC[C@]1(O[C@@H]1O[C@H](CO)[C@@H](O)[C@H](O[C@@H]2O[C@H](CO)[C@@H](O)[C@H](O)[C@H]2O)[C@H]1O[C@@H]1O[C@H](CO)[C@@H](O)[C@H](O)[C@H]1O)C3 [Form 1, rebaudioside A] |  | Very low | (<0.2% in | 
